Results as given in patent US11679168B2, “Caspase-3-triggered molecular self-assembling PET probes and uses thereof” (The Board of Trustees of the Leland Stanford Junior …, priority 2018, dated 2023).
Each block holds one compound with its values, some of them ahead of it. Peptide text beside a SMILES is read from it. * marks the point of attachment. Cbz = O=C(OCc1ccccc1)*; CH2F = FC*

How the values were obtained:
[1] = test system: caspase-3 activity in H460 cells; assay: Confocal imaging of cisplatin-treated H460 cells with C-SNAF4-Cy5; format: cell-based, human; details: 50 μM
Protocol: Confocal Microscopy Imaging of Cisplatin-treated H460 Cells With C-SNAF4-Cy5: NCI-H460 cells at 70% confluency were either left naïve or treated with cisplatin (10 μM) for 24 hours. After removal of the medium, cells were incubated with 2 μM C-SNAF4-Cy5 at 37° C. for 24 hours. For the inhibition study, cells were first incubated with pan-caspase inhibitor Z-VAD-fmk (50 μM, 30 min) before incubation with C-SNAF4-Cy5.

[2] = L-cysteine with CBT; reported in Reference 13; cited from earlier work
[3] = Condensation kinetics of aminothiols with CBT (HPLC assay); format: physicochemical; details: substituted cysteine analogues with CBT, FIG. 50B
Protocol: General Methods for Measuring Kinetics of Condensation Reactions Between Aromatic Nitriles and Aminothiols: The 2nd order rate constants for condensation reactions between aromatic nitriles and aminothiols were measured by using HPLC assays. To solutions of aromatic nitriles (100 μM) in phosphate buffered saline (PBS) (1×, pH=7.4) were added aminothiol (1.0 equiv.), TCEP (2.0 equiv.) and NaHCO3 (3 equiv.). The reaction solutions were kept at room temperature (23° C.) and monitored by HPLC at different time points. The conversion rates were calculated using the peak integrals of aromatic nitriles and the condensation products at 254 nm. Based on 2nd order reaction law, 1/[aromatic nitrile] was plotted against time and the slope of the linear regression result gives the 2nd order rate constant.

H460 cells = assay: MTS cell viability assay in H460 cells; format: cell-based, human
Protocol: (§1) FIG. 13 illustrates cellular toxicity analysis in H460 and H1299 cells. Cells were incubated at different concentration of [^19F]-C-SNAT4 over 24 hours. The viability of cells was measured using an MTS assay.
FIG. 14 illustrates a Cisplatin dose response curves were assessed in H460 cells by MTS assay. The curves generated by GraphPad Prism software.
FIG. 36A illustrates the toxicity of C-SNAF4-Cy5 in heathy and apoptotic NCI-H460 measured with MTS assay (37° C., 24 h) in heathy H460 cells.
FIG. 36B illustrates the toxicity of C-SNAF4-Cy5 in H460 cells treated with cisplatin (1 μM, 24 hours) followed by incubation with C-SNAF4-Cy5 (37° C., 24 h).
Cell study: All cell lines were assessed to be pathogen-free prior to use in this study. […] Cell viability was assessed with CellTiter 96.RM AQueous One Solution Cell Proliferation Assay (MTS) kit from Promega (Madison, Wis., USA). […] After 60 min of incubation at 37° C., the absorbance was read at 490 nm with a 96 well plate reader from BMG LABTECH GmbH (Ortenberg, Germany).

H460 tumor = assay: Caliper measurement of H460 tumor volumes; format: in vivo, mice; details: H460, high dose (9 mg/kg every other day x3, i.v.), day 13 after implantation
Protocol: (§2) FIG. 5B illustrates caliper measurement of H460 and H1299 tumor volumes in saline and drug-treated mice. Measurements are time after cell implantation, with high dose of cisplatin-treated (Intravenous injection, 9 mg/kg every other day for three times) in H460 and in H1299 tumor-bearing mice as arrow indicated (arrow). n=5 for each group.
(§3) Animal model and probe administration: For subcutaneous tumor models, H460 or H1299 (2×10^6 cells in 100 μl of PBS) were injection subcutaneously on the back of female nu/nu nude mice (aged 6 to 8 weeks; Charles River Laboratories). Tumor dimensions were measured periodically using a caliper (by the same researcher), with tumor volumes calculated by the following equation: volume=a×b×c/2, where a, b, and c represent three orthogonal axis of the tumor. Treatment-response analysis was performed 24 h after drug treatment. For all other experiments, animals were culled 26 h after therapy and tissues excised for analysis. For chemotherapy mouse model, tumors were grown to about 150 mm^3, and then treatment that consisted of cisplatin (Sigma-Aldrich; Low dose: 3 mg/kg; high dose: 9 mg/kg) or saline was initiated through intravenous administration, every other day for three times. Total mouse body weight and tumor size were measured every other day. Treat or left untreated. […]

H1299 tumor = assay: Caliper measurement of H1299 tumor volumes; format: in vivo, mice; details: H1299, high dose (9 mg/kg every other day x3, i.v.), day 21 after implantation
Protocol: as §2, §3

H1299 cells = assay: MTS cell viability assay in H1299 cells; format: cell-based, human; details: H1299, up to 100 μM, 24 hours
Protocol: as §1
Cell study: All cell lines were assessed to be pathogen-free prior to use in this study. Human H460 and H1299 lung adenocarcinoma cells non-small cell lung cancer H460 (ATCC) and H1299 (ATCC) were cultured in Dulbecco's modified Eagle's medium (DMEM) (Invitrogen), supplement with 10% v/v fetal bovine serum (Life Technologies Inc.) and 1% v/v penicillin-streptomycin (100 IU/ml, […]; Life Technologies Inc.) at 37° C. in a humidified atmosphere maintained at 5% CO2. X-radiation was performed with an X-ray generator (0.2 mm Cu and 1 mm Al filter, 150 kV, Hitachi). The irradiation was carried out at room temperature at a dose rate of 0.2 Gy/min. Cell viability was assessed with CellTiter 96.RM AQueous One Solution Cell Proliferation Assay (MTS) kit from Promega (Madison, Wis., USA). Briefly, 100 μl aliquots of the treated or untreated cell suspension were seeded into 96-well polystyrene tissue culture plates and 20 μl of assay reagent was added to each well. After 60 min of incubation at 37° C., the absorbance was read at 490 nm with a 96 well plate reader from BMG LABTECH GmbH (Ortenberg, Germany).

caspase-3 = biological target: T1, caspase-3 (Homo sapiens, UniProt P42574); assay: Nanoaggregation of [19F]-C-SNAT4 after caspase-3 activation (DLS, TEM); format: biochemical
T1 construct: before and after addition of active caspase-3 (Casp3) enzyme; purchased Sigma; host or cells: E. coli
T1 sequence (P42574 29-175 limits assumed): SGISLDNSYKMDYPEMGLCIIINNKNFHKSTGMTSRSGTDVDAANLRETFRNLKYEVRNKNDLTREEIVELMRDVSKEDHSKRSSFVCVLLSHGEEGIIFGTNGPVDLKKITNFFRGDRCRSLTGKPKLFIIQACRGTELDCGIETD
T1 sequence (P42574 176-277 limits assumed): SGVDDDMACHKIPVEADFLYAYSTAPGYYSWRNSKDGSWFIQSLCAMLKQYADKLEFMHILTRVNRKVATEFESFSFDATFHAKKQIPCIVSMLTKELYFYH
Protocol: FIG. 1C illustrates the TEM images of [^19F]-C-SNAT4 before and after addition of active caspase-3 (Casp3) enzyme. [^19F]-C-SNAT4 (20 μM) was incubated with caspase-3 (2×10^−3U mL^−1, human, recombinant from E. coli, Sigma) in caspase buffer at 37° C. overnight.
FIG. 12 illustrates in vitro validation and nanoaggregation characterization of [^19F]-C-SNAT4. [^19F]-C-SNAT4 and formation of cycl-[^19F]-SNAT4 after [^19F]-C-SNAT4 incubated with caspase-3 were analyzed by (A) HPLC, (B) DLS of [^19F]-C-SNAT4 without and with caspase-3 incubation. [^19F]-C-SNAT4 (20 μM) was incubated with caspase-3 (2×10^−3U mL^−1, human, recombinant from E. coli, Sigma) in caspase buffer (50 mM HEPES, 100 mM NaCl, 1 mM EDTA, 10 mM TCEP, 10% glycerol and 0.1% CHAPS at pH 7.4) at 37° C. overnight.

SMILES: COC(=O)C[C@H](NC(=O)[C@H](C)NC(=O)[C@@H](NC(=O)OCc1ccccc1)C(C)C)C(=O)CF [Z-VAD-fmk] (Cbz-Val-Ala-Asp(OMe)-CH2F)
- effect on C-SNAF4-Cy5 fluorescence [1]: Fluorescence abolishment

SMILES: N[C@@H](CS)C(=O)O [L-cysteine]
- 2nd order rate constant k [2]: 2.9 M⁻¹ s⁻¹
- second-order reaction rate [3]: 3.2 M⁻¹ s⁻¹

SMILES: N.N.[Cl][Pt][Cl] [cisplatin]
- IC50 (H460 cells; H460, MTS assay, read-out: half-maximal inhibitory concentration (IC50)): 9.51 µM
- tumor volume (H460 tumor): 690.8±88.6 mm^3
- tumor volume (H1299 tumor): 1348.5±356.0 mm^3

- average size of nanoparticles (DLS) (caspase-3): around 200 nm
SMILES: CCSSCC(NC(=O)C(CC(=O)O)NC(=O)C(NC(=O)C(CCC(=O)O)NC(=O)C(CC(=O)O)NC(C)=O)C(C)C)C(=O)NCC(=O)NC(Cc1cn(CCOCCOCCOCCF)nn1)C(=O)NCc1ccc(C(=O)NCCCOc2cnc(C#N)nc2)cc1 (stereo not drawn) [[^19F]-C-SNAT4]
- cytotoxicity (H1299 cells): no toxicity
- cytotoxicity (H460 cells; H460, up to 100 μM, 24 hours): no toxicity
